The results in this text go back to article PMC2151519 (The Journal of General Physiology, 2006).

Targets include TRPM6/7 (Homo sapiens; Mus musculus, UniProt Q923J1+Q9BX84); TRPM6 (Homo sapiens, UniProt Q9BX84); TRPM7 (Mus musculus, UniProt Q923J1).
Experiment in all cases: whole-cell patch clamp, outward current, CHO-K1
What all share (assay type): cell-based
Background: Patch clamp records ionic current or voltage across a cell membrane.

Sequence of TRPM7 (Q923J1 whole entry): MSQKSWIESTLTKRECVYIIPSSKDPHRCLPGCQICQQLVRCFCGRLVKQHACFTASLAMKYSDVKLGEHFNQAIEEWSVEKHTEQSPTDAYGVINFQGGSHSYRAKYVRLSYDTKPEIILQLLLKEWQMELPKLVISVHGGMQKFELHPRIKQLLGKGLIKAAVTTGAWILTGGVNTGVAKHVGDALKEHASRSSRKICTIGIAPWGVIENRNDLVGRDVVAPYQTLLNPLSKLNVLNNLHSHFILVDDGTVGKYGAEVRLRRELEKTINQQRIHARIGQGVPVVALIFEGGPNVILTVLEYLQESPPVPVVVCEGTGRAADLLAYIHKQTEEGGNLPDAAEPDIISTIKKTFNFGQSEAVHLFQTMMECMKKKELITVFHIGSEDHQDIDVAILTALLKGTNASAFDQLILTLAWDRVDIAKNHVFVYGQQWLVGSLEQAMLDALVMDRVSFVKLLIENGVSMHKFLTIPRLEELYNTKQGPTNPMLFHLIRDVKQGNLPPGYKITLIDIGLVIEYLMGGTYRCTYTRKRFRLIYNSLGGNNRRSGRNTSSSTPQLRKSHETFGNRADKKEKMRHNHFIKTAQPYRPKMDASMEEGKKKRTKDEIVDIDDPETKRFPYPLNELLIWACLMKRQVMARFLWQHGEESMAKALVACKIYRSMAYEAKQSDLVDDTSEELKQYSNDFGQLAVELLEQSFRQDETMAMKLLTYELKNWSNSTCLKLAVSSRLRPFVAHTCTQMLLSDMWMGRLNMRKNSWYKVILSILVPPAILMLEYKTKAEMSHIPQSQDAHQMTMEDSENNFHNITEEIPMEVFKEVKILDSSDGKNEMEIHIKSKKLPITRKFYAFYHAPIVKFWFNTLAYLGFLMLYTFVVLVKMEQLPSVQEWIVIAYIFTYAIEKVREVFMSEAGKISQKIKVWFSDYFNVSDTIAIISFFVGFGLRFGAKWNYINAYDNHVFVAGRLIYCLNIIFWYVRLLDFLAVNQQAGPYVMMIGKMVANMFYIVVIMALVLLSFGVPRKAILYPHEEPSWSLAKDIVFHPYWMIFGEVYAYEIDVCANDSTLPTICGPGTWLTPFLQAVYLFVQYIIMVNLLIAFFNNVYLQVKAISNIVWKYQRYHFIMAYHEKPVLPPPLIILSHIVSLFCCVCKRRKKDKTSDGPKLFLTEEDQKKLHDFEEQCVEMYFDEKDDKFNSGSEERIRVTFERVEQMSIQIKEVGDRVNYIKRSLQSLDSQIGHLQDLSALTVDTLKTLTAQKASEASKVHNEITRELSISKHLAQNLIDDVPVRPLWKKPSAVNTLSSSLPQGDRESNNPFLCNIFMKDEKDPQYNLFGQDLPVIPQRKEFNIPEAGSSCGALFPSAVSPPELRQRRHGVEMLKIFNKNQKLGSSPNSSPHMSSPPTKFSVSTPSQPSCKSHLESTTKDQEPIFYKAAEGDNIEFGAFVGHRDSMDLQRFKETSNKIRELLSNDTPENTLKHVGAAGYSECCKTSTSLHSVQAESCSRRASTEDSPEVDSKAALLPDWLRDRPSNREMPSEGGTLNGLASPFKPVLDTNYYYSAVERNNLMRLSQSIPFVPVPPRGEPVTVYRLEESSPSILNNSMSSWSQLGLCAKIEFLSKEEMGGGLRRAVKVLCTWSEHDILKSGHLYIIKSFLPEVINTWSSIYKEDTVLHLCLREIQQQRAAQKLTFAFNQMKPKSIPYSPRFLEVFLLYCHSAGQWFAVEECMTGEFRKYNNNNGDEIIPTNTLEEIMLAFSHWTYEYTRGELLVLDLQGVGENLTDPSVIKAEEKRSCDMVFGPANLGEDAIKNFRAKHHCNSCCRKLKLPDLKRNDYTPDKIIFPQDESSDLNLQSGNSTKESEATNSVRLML
Sequence of TRPM6 (Q9BX84 whole entry): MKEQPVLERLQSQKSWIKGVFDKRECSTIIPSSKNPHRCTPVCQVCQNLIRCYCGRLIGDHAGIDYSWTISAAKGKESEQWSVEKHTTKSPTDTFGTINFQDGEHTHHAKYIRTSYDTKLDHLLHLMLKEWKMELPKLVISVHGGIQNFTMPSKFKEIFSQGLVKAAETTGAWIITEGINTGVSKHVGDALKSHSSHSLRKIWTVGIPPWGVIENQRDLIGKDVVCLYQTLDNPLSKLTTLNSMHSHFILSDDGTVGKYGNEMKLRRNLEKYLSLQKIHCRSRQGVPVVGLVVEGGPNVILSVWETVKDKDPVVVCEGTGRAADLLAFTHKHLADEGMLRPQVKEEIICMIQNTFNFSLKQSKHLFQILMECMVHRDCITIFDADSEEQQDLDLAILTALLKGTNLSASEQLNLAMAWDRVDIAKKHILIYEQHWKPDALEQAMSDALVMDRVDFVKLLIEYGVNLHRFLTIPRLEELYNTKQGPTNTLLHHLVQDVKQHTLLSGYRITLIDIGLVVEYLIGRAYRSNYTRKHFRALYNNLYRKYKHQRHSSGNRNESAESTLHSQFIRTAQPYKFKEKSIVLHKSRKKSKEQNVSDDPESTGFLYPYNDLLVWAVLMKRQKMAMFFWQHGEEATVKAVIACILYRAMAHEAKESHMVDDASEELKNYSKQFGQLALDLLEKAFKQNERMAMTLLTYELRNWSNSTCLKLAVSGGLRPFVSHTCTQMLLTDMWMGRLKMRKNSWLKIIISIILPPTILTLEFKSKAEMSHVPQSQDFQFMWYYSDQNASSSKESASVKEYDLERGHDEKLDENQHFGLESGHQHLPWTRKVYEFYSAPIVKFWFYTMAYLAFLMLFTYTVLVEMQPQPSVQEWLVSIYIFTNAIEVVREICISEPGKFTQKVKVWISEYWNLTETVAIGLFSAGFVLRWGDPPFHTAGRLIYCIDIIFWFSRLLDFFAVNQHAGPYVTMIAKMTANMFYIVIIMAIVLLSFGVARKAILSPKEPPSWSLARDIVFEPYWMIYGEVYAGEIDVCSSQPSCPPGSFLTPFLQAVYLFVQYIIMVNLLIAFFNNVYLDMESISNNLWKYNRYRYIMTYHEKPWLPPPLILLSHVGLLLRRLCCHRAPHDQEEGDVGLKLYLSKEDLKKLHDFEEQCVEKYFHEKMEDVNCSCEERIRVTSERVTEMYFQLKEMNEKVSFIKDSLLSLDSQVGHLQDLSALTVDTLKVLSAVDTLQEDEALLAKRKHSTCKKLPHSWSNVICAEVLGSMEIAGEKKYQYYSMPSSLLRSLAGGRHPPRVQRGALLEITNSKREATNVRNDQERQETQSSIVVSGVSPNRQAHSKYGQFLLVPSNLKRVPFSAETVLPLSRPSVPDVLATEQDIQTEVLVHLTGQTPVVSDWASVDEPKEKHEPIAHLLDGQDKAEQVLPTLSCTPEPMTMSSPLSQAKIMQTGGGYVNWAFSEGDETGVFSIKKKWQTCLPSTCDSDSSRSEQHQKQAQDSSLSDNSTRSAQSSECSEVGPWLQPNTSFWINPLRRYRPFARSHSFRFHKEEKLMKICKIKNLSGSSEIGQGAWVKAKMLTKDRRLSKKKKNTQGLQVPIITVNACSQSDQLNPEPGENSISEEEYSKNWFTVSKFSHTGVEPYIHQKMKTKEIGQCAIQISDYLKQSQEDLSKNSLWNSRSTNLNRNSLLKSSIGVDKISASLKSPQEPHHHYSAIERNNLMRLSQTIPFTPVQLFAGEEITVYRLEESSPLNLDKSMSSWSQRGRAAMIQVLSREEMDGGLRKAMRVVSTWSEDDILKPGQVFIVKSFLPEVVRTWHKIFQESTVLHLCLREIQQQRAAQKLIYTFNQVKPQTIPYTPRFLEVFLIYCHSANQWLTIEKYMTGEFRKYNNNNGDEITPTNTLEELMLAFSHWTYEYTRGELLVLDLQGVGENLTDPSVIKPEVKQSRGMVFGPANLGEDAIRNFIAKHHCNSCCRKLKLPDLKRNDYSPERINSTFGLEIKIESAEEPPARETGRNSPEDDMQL
Sequence of TRPM6/7 (Q9BX84 whole entry): as above
Sequence of TRPM6/7 (Q923J1 whole entry): as the sequence (Q923J1 whole entry) above

For orientation: EC50 means the concentration needed to bring the measured effect to its halfway point. A lower EC50 goes with greater potency. The IC50 is the point on the concentration scale where inhibition reaches its midpoint. Read a low IC50 as greater potency in that assay. Regarding `NCCOB(c1ccccc1)c1ccccc1` [2-APB], the concentration for a half-maximal effect (EC50) is 1600 ± 100 µM at TRPM6/7 and 205 ± 10 µM on TRPM6. Further, at TRPM7, inhibition was half-maximal at 178 ± 14 µM (IC50).
